In patent publication US12336981B2, “Compounds and compositions for the inhibition of NAMPT” (Valo Health, Inc., priority 2010, dated 2025):

Columns and labels:
A2780 cells = assay: In-vitro cell proliferation assay (SRB), A2780 cells; assay type: cell-based; details: Homo sapiens, A2780, 72 h, A2780 cells, 72 hours, SRB; read-out: A2780 IC50
Summary of the method: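 Growth inhibition was derived from background-corrected SRB absorbance (570 nm), measured on cells fixed in 6% TCA after three days of compound treatment under 5% CO2 at 37° C.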

NAMPT = target: T1, NAMPT (Homo sapiens, UniProt P43490); assay: Biochemical inhibition assay: NAMPT enzymatic reaction, NMN quantified by mass spectrometry; details: NAMPT enzymatic reaction; read-out: Biochem IC50
T1 construct: His tag; host or cells: E. coli
T1 sequence (P43490 whole entry): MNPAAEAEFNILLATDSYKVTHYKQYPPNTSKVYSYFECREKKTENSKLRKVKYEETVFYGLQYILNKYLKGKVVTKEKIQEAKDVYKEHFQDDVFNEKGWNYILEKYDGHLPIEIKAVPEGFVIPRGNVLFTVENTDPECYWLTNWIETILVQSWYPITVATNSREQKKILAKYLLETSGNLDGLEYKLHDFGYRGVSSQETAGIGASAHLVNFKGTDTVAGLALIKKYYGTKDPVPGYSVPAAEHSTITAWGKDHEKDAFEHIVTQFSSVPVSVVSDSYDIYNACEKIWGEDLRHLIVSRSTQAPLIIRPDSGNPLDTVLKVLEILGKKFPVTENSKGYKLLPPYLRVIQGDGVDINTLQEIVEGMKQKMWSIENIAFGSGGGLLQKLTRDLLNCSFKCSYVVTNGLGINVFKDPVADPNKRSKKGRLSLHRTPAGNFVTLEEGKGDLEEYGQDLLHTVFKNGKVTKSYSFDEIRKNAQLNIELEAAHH
Summary of the method: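 Inhibition of E. coli-expressed His-tagged human NAMPT, measured as NMN formation by mass spectrometry after a 30 min room-temperature reaction containing 1 μM NAM, 100 μM PRPP and 2.5 mM ATP.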

SMILES | IC50 (A2780 cells) | IC50 (NAMPT)
COc1cccc(S(=O)(=O)c2ccc(CNC(=O)c3cnc4nccn4c3)cc2)c1OC | 77.6 nM | 17.6 nM
Cc1cccc(S(=O)(=O)c2ccc(CNC(=O)c3cnc4nccn4c3)cc2)c1C | 46.9 nM | 4.1 nM
Cc1cccc(S(=O)(=O)c2ccc(CNC(=O)c3cc4ccncc4o3)cc2)c1C | 8 nM | 51.6 nM
Cc1cc(C)c(S(=O)(=O)c2ccc(CNC(=O)c3cnc4nccn4c3)cc2)cc1C | 24 nM | 6.9 nM
Cc1cc(C)c(S(=O)(=O)c2ccc(CNC(=O)c3cc4ccncc4o3)cc2)cc1C | 14.1 nM | 9.1 nM
Cc1cc(C)c(S(=O)(=O)c2ccc(CNC(=O)c3cc4ccncc4o3)cc2)c(C)c1 | 100 to 1000 nM | 59.2 nM
CC(=O)c1cccc(S(=O)(=O)c2ccc(CNC(=O)c3cnc4[nH]ncc4c3)cc2)c1 | 12.9 nM | 10 nM
CC(=O)c1cccc(S(=O)(=O)c2ccc(CNC(=O)c3cnc4nccn4c3)cc2)c1 | 10.5 nM | 1.8 nM
CCCCOc1cccc(S(=O)(=O)c2ccc(CNC(=O)c3ccc4nccn4c3)cc2)c1 | 18 nM | 4.7 nM
CCCCOc1cccc(S(=O)(=O)c2ccc(CNC(=O)c3cc4ccncc4s3)cc2)c1 | 38.7 nM | 3.3 nM
O=C(NCc1ccc(S(=O)(=O)c2cccc(Cl)c2F)cc1)c1cnc2nccn2c1 | 17.6 nM | 2.4 nM
O=C(NCc1ccc(S(=O)(=O)c2cccc(Cl)c2F)cc1)c1cc2ccncc2o1 | 12.8 nM | 10.9 nM
COc1c(Cl)cccc1S(=O)(=O)c1ccc(CNC(=O)c2cc3ccncc3o2)cc1 | 62.3 nM | 19.2 nM
Cc1c(Cl)cccc1S(=O)(=O)c1ccc(CNC(=O)c2ccc3nccn3c2)cc1 | 5 nM | 25.7 nM
Cc1c(Cl)cccc1S(=O)(=O)c1ccc(CNC(=O)c2cc3ccncc3o2)cc1 | 1.6 nM | 2.6 nM
Cc1c(Cl)cccc1S(=O)(=O)c1ccc(CNC(=O)c2cc3cnccc3[nH]2)cc1 | 12 nM | 62.5 nM
Cc1c(Cl)cccc1S(=O)(=O)c1ccc(CNC(=O)c2cnc3nccn3c2)cc1 | 26.5 nM | 4.3 nM
COc1ccc(S(=O)(=O)c2ccc(CNC(=O)c3cc4cnccc4[nH]3)cc2)cc1Cl | 2.1 nM | 10.7 nM
COc1ccc(S(=O)(=O)c2ccc(CNC(=O)c3cnc4nccn4c3)cc2)cc1Cl | 1.8 nM | 1.8 nM
COc1ccc(S(=O)(=O)c2ccc(CNC(=O)c3cnc4[nH]ncc4c3)cc2)cc1Cl | 3.6 nM | 4 nM
Cc1ccc(S(=O)(=O)c2ccc(CNC(=O)c3cc4ccncc4s3)cc2)cc1Cl | 1 nM | 5.1 nM
Cc1ccc(S(=O)(=O)c2ccc(CNC(=O)c3cc4ccncc4o3)cc2)cc1Cl | 1.7 nM | 52.8 nM
Cc1ccc(S(=O)(=O)c2ccc(CNC(=O)c3cnc4nccn4c3)cc2)cc1Cl | 1.2 nM | 1.8 nM
Cc1ccc(S(=O)(=O)c2ccc(CNC(=O)c3cc4cnccc4[nH]3)cc2)cc1Cl | 2.5 nM | 8.3 nM
CCCOc1ccc(S(=O)(=O)c2ccc(CNC(=O)c3cc4ccncc4o3)cc2)cc1Cl | 11.9 nM | 4.9 nM

SMILES | IC50 (A2780 cells) | IC50 (NAMPT)
CCCOc1ccc(S(=O)(=O)c2ccc(CNC(=O)c3cnc4nccn4c3)cc2)cc1Cl | 2.4 nM | 3.9 nM
CCCOc1ccc(S(=O)(=O)c2ccc(CNC(=O)c3ccc4nccn4c3)cc2)cc1Cl | 6 nM | 6.5 nM
CCCOc1ccc(S(=O)(=O)c2ccc(CNC(=O)c3cc4ccncc4s3)cc2)cc1Cl | 17.4 nM | 15.1 nM
O=C(NCc1ccc(S(=O)(=O)c2cc(F)cc(Cl)c2)cc1)c1cc2ccncc2s1 | 0.6 nM | 1.4 nM
O=C(NCc1ccc(S(=O)(=O)c2cc(F)cc(Cl)c2)cc1)c1cc2ccncc2o1 | 3.1 nM | 17.8 nM
O=C(NCc1ccc(S(=O)(=O)c2cc(F)cc(Cl)c2)cc1)c1cnc2nccn2c1 | 2.9 nM | 2.4 nM
O=C(NCc1ccc(S(=O)(=O)c2cc(F)cc(Cl)c2)cc1)c1ccc2nccn2c1 | 0.3 nM | 3.9 nM
O=C(NCc1ccc(S(=O)(=O)c2cc(F)cc(Cl)c2)cc1)c1cnc2[nH]ncc2c1 | 6 nM | 13.3 nM
O=C(NCc1ccc(S(=O)(=O)c2cc(F)cc(Cl)c2)cc1)c1cc2cnccc2[nH]1 | 1.4 nM | 9.9 nM
COc1cc(Cl)cc(S(=O)(=O)c2ccc(CNC(=O)c3cc4ccncc4o3)cc2)c1 | 1.5 nM | 26.5 nM
COc1cc(Cl)cc(S(=O)(=O)c2ccc(CNC(=O)c3ccc4nccn4c3)cc2)c1 | 1.5 nM | 9.2 nM
COc1cc(Cl)cc(S(=O)(=O)c2ccc(CNC(=O)c3cnc4[nH]ncc4c3)cc2)c1 | 2.5 nM | 9.3 nM
COc1cc(Cl)cc(S(=O)(=O)c2ccc(CNC(=O)c3cnc4nccn4c3)cc2)c1 | 0.8 nM | 1.3 nM
COc1cc(Cl)cc(S(=O)(=O)c2ccc(CNC(=O)c3cc4ccncc4s3)cc2)c1 | 1.1 nM | 4.1 nM
Cc1cc(Cl)cc(S(=O)(=O)c2ccc(CNC(=O)c3cnc4[nH]ncc4c3)cc2)c1 | 2.6 nM | 6.2 nM
Cc1cc(Cl)cc(S(=O)(=O)c2ccc(CNC(=O)c3cnc4nccn4c3)cc2)c1 | 2.3 nM | 4.8 nM
Cc1cc(Cl)cc(S(=O)(=O)c2ccc(CNC(=O)c3ccc4nccn4c3)cc2)c1 | 2 nM | 6.4 nM
O=C(NCc1ccc(S(=O)(=O)c2cccc(Cl)c2)cc1)c1cc2ncccc2[nH]1 | 13 nM | 3.9 nM
O=C(NCc1ccc(S(=O)(=O)c2cccc(Cl)c2)cc1)c1cnc2nccn2c1 | 1.2 nM | 1.3 nM
N#Cc1cccc(S(=O)(=O)c2ccc(CNC(=O)c3cc4cnccc4[nH]3)cc2)c1 | 11.3 nM | 12.1 nM
N#Cc1cccc(S(=O)(=O)c2ccc(CNC(=O)c3cnc4nccn4c3)cc2)c1 | 19.2 nM | 5.9 nM
N#Cc1cccc(S(=O)(=O)c2ccc(CNC(=O)c3cc4ccncc4s3)cc2)c1 | 5.6 nM | 3.5 nM
CCOc1cccc(S(=O)(=O)c2ccc(CNC(=O)c3cc4ccncc4s3)cc2)c1F | 12.9 nM | 3.7 nM
CCOc1cccc(S(=O)(=O)c2ccc(CNC(=O)c3cc4cnccc4[nH]3)cc2)c1F | 11.6 nM | 31.2 nM
CCOc1cccc(S(=O)(=O)c2ccc(CNC(=O)c3cc4ccncc4o3)cc2)c1F | 22.7 nM | 17.5 nM

SMILES | IC50 (A2780 cells) | IC50 (NAMPT)
CCOc1cccc(S(=O)(=O)c2ccc(CNC(=O)c3cnc4nccn4c3)cc2)c1F | 19.7 nM | 4 nM
CCOc1cccc(S(=O)(=O)c2ccc(CNC(=O)c3ccc4nccn4c3)cc2)c1F | 6.2 nM | 5 nM
CCOc1cc(S(=O)(=O)c2ccc(CNC(=O)c3cc4ccncc4s3)cc2)ccc1F | 3.1 nM | 3.3 nM
CCOc1cc(S(=O)(=O)c2ccc(CNC(=O)c3ccc4nccn4c3)cc2)ccc1F | 6 nM | 17 nM
CCOc1cc(S(=O)(=O)c2ccc(CNC(=O)c3cc4cnccc4[nH]3)cc2)ccc1F | 4.4 nM | 82.4 nM
CCOc1cccc(S(=O)(=O)c2ccc(CNC(=O)c3cnc4[nH]ncc4c3)cc2)c1 | 19 nM | 14.6 nM
CCOc1cccc(S(=O)(=O)c2ccc(CNC(=O)c3cnc4nccn4c3)cc2)c1 | 6.7 nM | 2.1 nM
CCOc1cccc(S(=O)(=O)c2ccc(CNC(=O)c3ccc4nccn4c3)cc2)c1 | 3.1 nM | 5 nM
CCc1cccc(S(=O)(=O)c2ccc(CNC(=O)c3cnc4[nH]ncc4c3)cc2)c1 | 7.1 nM | 7 nM
CCc1cccc(S(=O)(=O)c2ccc(CNC(=O)c3cnc4nccn4c3)cc2)c1 | 4.1 nM | 3.8 nM
COc1ccc(S(=O)(=O)c2ccc(CNC(=O)c3cc4ccncc4o3)cc2)cc1OC | 3.8 nM | 6.2 nM
COc1ccc(S(=O)(=O)c2ccc(CNC(=O)c3cnc4nccn4c3)cc2)cc1OC | 7.3 nM | 2.9 nM
Cc1ccc(S(=O)(=O)c2ccc(CNC(=O)c3cnc4[nH]ncc4c3)cc2)cc1C | 3.4 nM | 5.1 nM
Cc1ccc(S(=O)(=O)c2ccc(CNC(=O)c3cnc4nccn4c3)cc2)cc1C | 1.6 nM | 1.1 nM
Cc1ccc(S(=O)(=O)c2ccc(CNC(=O)c3cc4ccncc4o3)cc2)cc1C | 3 nM | 15 nM
O=C(NCc1ccc(S(=O)(=O)c2cc(Cl)cc(Cl)c2)cc1)c1cnc2[nH]ncc2c1 | 2.1 nM | 6.7 nM
O=C(NCc1ccc(S(=O)(=O)c2cc(Cl)cc(Cl)c2)cc1)c1cc2cnccc2[nH]1 | 0.4 nM | 1 nM
O=C(NCc1ccc(S(=O)(=O)c2cc(F)cc(F)c2)cc1)c1cnc2nccn2c1 | 3 nM | 2 nM
COc1cc(OC)cc(S(=O)(=O)c2ccc(CNC(=O)c3cc4ccncc4o3)cc2)c1 | 1.7 nM | 2.7 nM
COc1cc(OC)cc(S(=O)(=O)c2ccc(CNC(=O)c3cc4cnccc4[nH]3)cc2)c1 | 1.5 nM | 4.4 nM
COc1cc(OC)cc(S(=O)(=O)c2ccc(CNC(=O)c3cnc4[nH]ncc4c3)cc2)c1 | 2.2 nM | 2.6 nM
COc1cc(OC)cc(S(=O)(=O)c2ccc(CNC(=O)c3cc4ccncc4s3)cc2)c1 | 0.9 nM | 1.3 nM
Cc1cc(C)cc(S(=O)(=O)c2ccc(CNC(=O)c3cnc4nccn4c3)cc2)c1 | 2 nM | 1.7 nM
Cc1cc(C)cc(S(=O)(=O)c2ccc(CNC(=O)c3cnc4[nH]ncc4c3)cc2)c1 | 6.1 nM | 10.4 nM
Cc1cc(C)cc(S(=O)(=O)c2ccc(CNC(=O)c3cc4ccncc4o3)cc2)c1 | 2.8 nM | 16.7 nM
